“Also recorded” adds a separate entry of the source. Read-outs that look alike come from different tables or passages of the source.
Experiments:
[1] = Stability in bovine serum-containing cell media (LC/MS); type: in vitro ADME; settings: 20 µM, DMEM with 15% FBS, 24 h, 37 °C
Procedure: To be suitable for chemical probe and therapeutic applications, the warhead should show good stability. In general, we found the iminolactam warheads to be quite stable. Compound 1 was stable as a solid at room temperature for over 3 months. […] After 24‐h in aqueous buffer, compounds were treated with sodium cyanoborohydride. […] The synthetic strategy of in situ formation of imines by periodate treatment was pursued to avoid concerns of warhead reactivity with the ligand itself to either the peptide backbone or the phenoxyphenyl aryl group. This appears to have been unnecessary, at least for the iminolactam warhead. […] The more reactive ester imine may be forming semi‐stable cyclized products with the amide backbone, which have been observed previously with peptide aldehydes.^[ [51], [52] ^] Due to these issues, we selected compound P1b for further characterization.
Figure S17. Stability of cyclic imine inhibitors to serum-containing cell culture media. […] The protein fraction was then precipitated with addition of 2 volumes of 1:1 EtOH:acetonitrile and overnight incubation at -20 °C. Samples were centrifuged 16,000 g for 30 minutes. Supernatants were filtered through a 0.5 micro spin filter and evaporated with a speed vacuum. The compounds were resuspended in PBS and analzyed by LC/MS. […] Overlaid spectra of UV at 215 nm are shown and are representative of 3 replicates.

CBX2 ChD [2] = target: T1, CBX2 ChD (Homo sapiens, UniProt Q14781); test: Time-dependent fluorescence polarization displacement assay, CBX2 ChD; type: binding; settings: for IC50: Figure 5d, CBX2 ChD 2 µM, probe 100 nM
T1 construct: CBX chromodomain constructs (addgene plasmid #25158 (CBX2), and #62514 (CBX8, provided by Cheryl Arrowsmith)); 6His; host or cells: E. coli (BL21 CodonPlus RIL or Rosetta 2)
T1 sequence (Q14781 12-70 limits assumed): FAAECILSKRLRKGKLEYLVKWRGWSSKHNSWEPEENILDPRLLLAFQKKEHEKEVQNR
Procedure: (§1) Observed masses are shown (expected average mass for CBX8 ChD = 8792 Da). The observed mass difference (913 Da) agrees with the expected mass change of 913 Da. b) Labeled protein was detected by gel shift on 16.5% Tris‐Tricine SDS‐PAGE. […] Gel analysis was conducted on a 2.5% agarose gel in 10 mM sodium borate buffer. […] Assays were conducted using SW2_113 as an FP probe (Figure S20) at 100 nM. All proteins were used at 2 µM in PBS (pH 7), 0.02% Tween 20. Error bars represent SD. […] (μM); no other compound label is printed beside the IC50 lines
2.2 Fluorescence Displacement Assay to Evaluate Time-dependent potency of Imine Covalent Inhibitors to CBX ChD. Fluorescence polarization (FP) was measured by titration of CBX ChDs (CBX8 ChD/CBX8 ChD Y39F/CBX2 ChD) to a fluoresceine-labelled probe as previously reported ^1. Fluorescence displacement assays were performed in black 384-well plates with optical bottoms. Buffer used in FP assays consists of 100 mM Na2HPO4, 150 mM NaCl, 0.02% Tween 20. […] Two-fold dilutions of covalent inhibitors were used, starting with 100 µM as highest peptide concentration to 0.049 µM as the lowest. Four replicates were tested at each concentration. Fluorescence anisotropy was read at different time points. Raw data were analyzed using GraphPad Prism 7 following a “one site-Fit logIC50” competition model with any outliers (95 % confidence interval) being excluded.
Time-dependent fluorescence displacement assay Fluorescence polarization (FP) was measured by titration of CBX ChDs (CBX8 ChD/CBX8 ChD Y39F/CBX2 ChD) to a fluorescein-labelled probe as previously reported.^8 Fluorescence displacement assays were performed in black 384-well plates with optical bottoms. Buffer used in FP assays consists of 100 mM Na2HPO4, 150 mM NaCl, 0.02% Tween 20. […] Fluorescence anisotropy was read at different time points. […] Raw data were analyzed using GraphPad Prism 7 following a “one site-Fit logIC50” competition model with any outliers (95 % confidence interval) being excluded.

CBX8 ChD [3] = target: T2, CBX8 ChD (Homo sapiens, UniProt Q9HC52); test: Time-dependent fluorescence polarization displacement assay, CBX8 ChD; type: binding; settings: Figure 5d, CBX8 ChD 2 µM, PBS pH 7
T2 construct: CBX chromodomain constructs (addgene plasmid #25158 (CBX2), and #62514 (CBX8, provided by Cheryl Arrowsmith)); 6His; host or cells: E. coli (BL21 CodonPlus RIL or Rosetta 2)
T2 sequence (Q9HC52 11-69 limits assumed): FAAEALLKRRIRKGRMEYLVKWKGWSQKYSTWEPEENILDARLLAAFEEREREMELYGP

CBX8 ChD [4] = target: T2, CBX8 ChD; test: Covalent conjugation to CBX8 ChD, UV integration on LC/MS; type: binding
Procedure: Percent covalent conjugation was determined by UV integration on LC/MS after overnight incubation at 10 µM compound and protein at 37 °C.
2.3 In Vitro CBX ChD Labeling with Covalent Inhibitors. 10 µM purified CBX ChD was incubated with imine covalent inhibitors (10 µM) in PBS buffer (pH 7) at 37 °C or R.T. Protein labeling samples were precipitated using MeOH and CHCl3 at the volume ratio of MeOH:CHCl3:sample=3:0.5:1, washed twice using cold MeOH, and air dried. Dried protein pellets were resuspended in aqueous buffer (0.1% formic acid, 300 mM ammonium acetate).
Precipitated samples were analyzed on a C4 reversed-phase column (e.g., 2.1 × 150 mm, 3–5 µm particle size) using a linear gradient of solvent A (0.1% formic acid in water) and solvent B (0.1% formic acid in acetonitrile). Elution was monitored by UV absorbance at 215 nm, and mass spectra were acquired in positive ion mode to confirm the identities of unlabeled and labeled protein species.
Labeling yield (%)=AlabeledAlabeled+Aunlabeled×100
For P2, 10 µM purified CBX ChD was incubated with P2 (10 µM) in PBS buffer (pH 7) at 37 °C or R.T. for 1.5 hours, as well as 12 hours overnight. […] Dried protein pellets were resuspended in aqueous buffer (0.1% formic acid, 300 mM ammonium acetate), and protein labeling were characterized and quantitated by ESI LC-MS.

CBX2 ChD [5] = target: T1, CBX2 ChD; test: Labeling of CBX2 ChD (gel shift, MS); type: binding; settings: gel shift or MS
Procedure: as §1
We confirmed protein labeling through a gel shift assay on Tris‐Tricine SDS‐PAGE (Figure 5b). […] To validate labeling of the targeted tyrosine residue (Y39), this amino acid was mutated to phenylalanine. […] We additionally confirmed the labeling site as Y39 by trypsin digest and LC‐MS/MS analysis (Figure S9B).
For P2, 10 µM purified CBX ChD was incubated with P2 (10 µM) in PBS buffer (pH 7) at 37 °C or R.T. for 1.5 hours, as well as 12 hours overnight. Samples were precipitated using MeOH and CHCl3 at the volume ratio of MeOH:CHCl3:sample=3:0.5:1, washed twice using cold MeOH, and air dried. Dried protein pellets were resuspended in aqueous buffer (0.1% formic acid, 300 mM ammonium acetate), and protein labeling were characterized and quantitated by ESI LC-MS.

CC[C@H](C)[C@H](NC(=O)[C@@H](NC(=O)c1ccc(Oc2ccccc2)cc1)C1CCCC1)C(=O)N[C@@H](CCCCN(CC)CCCCCCN1CCN=CC1=O)C(=O)N[C@@H](CO)C(N)=O [P1b]
stability in bovine serum‐containing cell media [1]: no degradation or loss to the protein fraction; also recorded: minimal loss of compounds to the precipitated protein fraction or degradation
IC50 (CBX2 ChD [2]; read-out: IC50 at time 0): 17 µM
IC50 (CBX2 ChD [2]; IC50 at 20 h): 15 µM
change in potency in time‐dependent FP assay (CBX2 ChD [2]; binding to CBX2): no change in potency
IC50 (CBX8 ChD [3]; SW2_113 probe 100 nM, read-out: IC50 at time 0): 9.9 µM
IC50 (CBX8 ChD [3]; IC50 at 20 h, probe 100 nM): 2 µM
% conj. to CBX8 at 37 °C Overnight 10 μM each (CBX8 ChD [4]; 10 µM compound and protein, 37 °C, overnight): ~90%
effect of GSH on CBX8 ChD labeling yield (CBX8 ChD [4]; presence of 10 mM GSH): no effect on yield
labeling of CBX2 ChD (CBX2 ChD [5]): no labeled protein was detected
